Reference: ChEMBL document CHEMBL1201862, “PubChem BioAssay data set” (2004)
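In this assay, cells in 96-well plates receive the compound at five concentrations for 48 hours. Endpoints are linearly interpolated between the surrounding concentrations. GI50 marks 50% less growth.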 Activity calls are given as the source filed them. No stated cut-off is given here; in the data, active = GI50 up to about 1.1 µM and inactive = higher.

What was measured:
Experiment in all cases: NCI tumour cell line growth inhibition, 48 h
NCI/ADR-RES = system: NCI/ADR-RES
HOP-62 = system: HOP-62
K562 = system: K562
MDA-MB-231 = system: MDA-MB-231
OVCAR-3 = system: OVCAR-3
TK-10 = system: TK-10
NCI-H23 = system: NCI-H23
UO-31 = system: UO-31
SK-MEL-5 = system: SK-MEL-5
CCRF-CEM = system: CCRF-CEM
U-251 = system: U-251
HCT-15 = system: HCT-15
NCI-H226 = system: NCI-H226
HL-60 = system: HL-60
LOX IMVI = system: LOX IMVI
UACC-257 = system: UACC-257
SK-MEL-2 = system: SK-MEL-2
A549 = system: A549
SK-MEL-28 = system: SK-MEL-28
PC-3 = system: PC-3

SMILES	GI50 (NCI/ADR-RES)	GI50 (HOP-62)	GI50 (K562)	GI50 (MDA-MB-231)	GI50 (OVCAR-3)	GI50 (TK-10)	GI50 (NCI-H23)	GI50 (UO-31)	GI50 (SK-MEL-5)	GI50 (CCRF-CEM)	GI50 (U-251)	GI50 (HCT-15)	GI50 (NCI-H226)	GI50 (HL-60)	GI50 (LOX IMVI)	GI50 (UACC-257)	GI50 (SK-MEL-2)	GI50 (A549)	GI50 (SK-MEL-28)	GI50 (PC-3)
COc1cc(OC)nc(NC(=O)NS(=O)(=O)c2cccc3ncn(C)c(=O)c23)n1	> 100 µM (inactive)	> 100 µM (inactive)	> 100 µM (inactive)	> 100 µM (inactive)	> 100 µM (inactive)	> 100 µM (inactive)	> 100 µM (inactive)	> 100 µM (inactive)	> 100 µM (inactive)	> 100 µM (inactive)	> 100 µM (inactive)	> 100 µM	> 100 µM (inactive)	> 100 µM (inactive)	> 100 µM (inactive)	> 100 µM (inactive)	> 100 µM (inactive)	> 100 µM (inactive)		
COc1ccc(CC(COS(=O)(=O)c2ccc(C)cc2)NS(=O)(=O)c2ccc(C)cc2)cc1 (stereo not given)	11 µM (inactive)	16.7 µM (inactive)	43.2 µM (inactive)	> 53.5 µM (inactive)	9.55 µM (inactive)	17.4 µM (inactive)	13.7 µM (inactive)	12.4 µM (inactive)	9.02 µM (inactive)		11.8 µM (inactive)	14.2 µM	7.4 µM (inactive)		19.5 µM (inactive)	15.8 µM (inactive)	15.1 µM (inactive)	12.1 µM (inactive)	15.5 µM (inactive)	14.8 µM (inactive)
COc1ccc2c(c1)C(=O)CCc1cc(OC)c(OC)c(OC)c1-2	0.0214 µM (active)	0.0662 µM (active)	0.0366 µM (active)	0.166 µM (active)	0.0409 µM (active)	15.1 µM (inactive)	0.024 µM (active)	0.0631 µM (active)	0.0521 µM (active)	0.0512 µM (active)	0.0285 µM (active)	0.0359 µM	0.0258 µM (active)		0.0966 µM (active)	< 0.01 µM (active)	0.0818 µM (active)	0.0687 µM (active)	0.0818 µM (active)	0.0474 µM (active)
CCN(CC)C(=O)N1CN(c2ccccc2)C2(CCN(CCCC3(c4ccc(F)cc4)OCCO3)CC2)C1=O	23.6 µM (inactive)	4.26 µM (inactive)			16.4 µM (inactive)	17.5 µM (inactive)	16.1 µM (inactive)	18.4 µM (inactive)	12.9 µM (inactive)	13.9 µM (inactive)	16.6 µM (inactive)	15.2 µM	30.5 µM (inactive)	12.7 µM (inactive)	12.7 µM (inactive)	12.4 µM (inactive)	14.8 µM (inactive)	29.3 µM (inactive)	13.8 µM (inactive)	17.5 µM (inactive)
CNC(=S)N/N=C(\C)c1cc(OC)c(OC)cc1O	> 100 µM (inactive)	> 100 µM (inactive)	7.29 µM (inactive)	> 100 µM (inactive)	> 100 µM (inactive)	> 100 µM (inactive)		> 100 µM (inactive)	> 100 µM (inactive)	> 100 µM (inactive)	> 100 µM (inactive)	> 100 µM		0.0556 µM (active)		> 100 µM (inactive)	> 100 µM (inactive)	> 100 µM (inactive)	> 100 µM (inactive)	> 100 µM (inactive)
CCC1CCN=C(Cn2cc(C)c(=O)[nH]c2=O)N1 (stereo not given)	> 100 µM (inactive)	> 100 µM (inactive)		> 100 µM (inactive)		> 100 µM (inactive)	> 100 µM (inactive)	> 100 µM (inactive)	> 100 µM (inactive)	0.201 µM (active)	> 100 µM (inactive)	> 100 µM	> 100 µM (inactive)		> 100 µM (inactive)	> 100 µM (inactive)	> 100 µM (inactive)	> 100 µM (inactive)	> 100 µM (inactive)	> 100 µM (inactive)
CCCSc1ccc2[nH]c(N3C(=O)/C(=C/c4ccco4)N=C3c3ccccc3)cc2c1	19.6 µM (inactive)	40.7 µM (inactive)	15.6 µM (inactive)		21.6 µM (inactive)		34.8 µM (inactive)	38.3 µM (inactive)	9.89 µM (inactive)	19.3 µM (inactive)		19.8 µM		11.9 µM (inactive)	27.8 µM (inactive)	18.2 µM (inactive)	10.3 µM (inactive)	25.7 µM (inactive)	33.7 µM (inactive)	21.3 µM (inactive)
CC[C@@H](C)[C@@H]1NC(=O)C(C(C)=O)=C1O		18.3 µM (inactive)	24 µM (inactive)		27.6 µM (inactive)	40.6 µM (inactive)	20.1 µM (inactive)	30.4 µM (inactive)	15.6 µM (inactive)	5.19 µM (inactive)	18.8 µM (inactive)	20.2 µM	31.7 µM (inactive)	53.8 µM (inactive)	26.1 µM (inactive)	34.2 µM (inactive)	15.3 µM (inactive)	26.4 µM (inactive)	3.02 µM (inactive)	
